Assay results published in patent US8574837B2, “System for screening agonists/antagonists of cellular signaling pathways” (President and Fellows of Harvard College, priority 2008, dated 2013).

Columns and labels:
Smo [1] = target: T1, Smo (Homo sapiens, UniProt Q99835); experiment: Smo translocation assay (A1::Smo::GFP / Smo colocalization with Arl13b at the primary cilium); type: cell-based; conditions: for Smo translocation to the primary cilium, agent applied alone: NIH/3T3 cells, ShhN 25 nM, SAG 200 nM, purmorphamine, 20-OHC, cyclopamine, GANT61 10 μM, SANT-1, SANT-2 1 μM, 24 hr; for ShhN-dependent translocation of Smo to the primary cilium, antagonist plus ShhN: ShhN 25 nM plus SANT-1 or SANT-2 1 μM or GANT61 10 μM, FIG. 6
T1 construct: expressed in transfected cells; host or cells: NIH/3T3 (mouse fibroblasts), retroviral infection with pBabe-A1::Smo::GFP, clonal lines
Experimental: All 3T3 cell lines were plated at a density of 1×10^4 cells per well in fibronectin coated Lab-Tek™ Chamber Slides (Nunc, 178599). The cells were grown to confluence, then switched to […] containing 0.5% BCS with indicated treatments for 24 hr or as stated elsewhere herein. Immunostaining was performed after fixation in 4% Paraformaldehyde (PFA) according to standard protocols. AcpS labeling reactions were performed as described previously (Zhou et al., 2007). Fluorescent images were collected after fixing samples using a Zeiss LSM510 META on an inverted microscope, with a 63× (1.4 NA) oil-immersion objective lens utilizing four laser lines (405 nm, 488 nm, 543 nm, 633 nm).
Mouse recombinant ShhN purified protein was purchased from R&D Systems (#464-SH-025). SAG, SANT-2, and GANT61 were purchased from Axxora (#ALX-270-426, #ALX-270-436, #ALX-270-482; Axxora, LLC, San Diego, Calif.). SANT-1 was obtained from Tocris Bioscience (#1974). DMSO was from Sigma Aldrich (D2650). Purmorphamine was from Calbiochem (#540220). […] AcpS, Texas Red-CoA, and Alexa633-CoA were prepared as described previously (Zhou et al., 130 J. Am. Chem. Soc. 9925-30 (2008)).

SmoA1 = conditions: cited from earlier work
Smo [2] = target: Smo (Mus musculus, UniProt P56726); conditions: cited from earlier work
Gli1 = target: T2, Gli1 (Homo sapiens, UniProt P08151); conditions: cited from earlier work
T2 sequence (P08151 1-1106): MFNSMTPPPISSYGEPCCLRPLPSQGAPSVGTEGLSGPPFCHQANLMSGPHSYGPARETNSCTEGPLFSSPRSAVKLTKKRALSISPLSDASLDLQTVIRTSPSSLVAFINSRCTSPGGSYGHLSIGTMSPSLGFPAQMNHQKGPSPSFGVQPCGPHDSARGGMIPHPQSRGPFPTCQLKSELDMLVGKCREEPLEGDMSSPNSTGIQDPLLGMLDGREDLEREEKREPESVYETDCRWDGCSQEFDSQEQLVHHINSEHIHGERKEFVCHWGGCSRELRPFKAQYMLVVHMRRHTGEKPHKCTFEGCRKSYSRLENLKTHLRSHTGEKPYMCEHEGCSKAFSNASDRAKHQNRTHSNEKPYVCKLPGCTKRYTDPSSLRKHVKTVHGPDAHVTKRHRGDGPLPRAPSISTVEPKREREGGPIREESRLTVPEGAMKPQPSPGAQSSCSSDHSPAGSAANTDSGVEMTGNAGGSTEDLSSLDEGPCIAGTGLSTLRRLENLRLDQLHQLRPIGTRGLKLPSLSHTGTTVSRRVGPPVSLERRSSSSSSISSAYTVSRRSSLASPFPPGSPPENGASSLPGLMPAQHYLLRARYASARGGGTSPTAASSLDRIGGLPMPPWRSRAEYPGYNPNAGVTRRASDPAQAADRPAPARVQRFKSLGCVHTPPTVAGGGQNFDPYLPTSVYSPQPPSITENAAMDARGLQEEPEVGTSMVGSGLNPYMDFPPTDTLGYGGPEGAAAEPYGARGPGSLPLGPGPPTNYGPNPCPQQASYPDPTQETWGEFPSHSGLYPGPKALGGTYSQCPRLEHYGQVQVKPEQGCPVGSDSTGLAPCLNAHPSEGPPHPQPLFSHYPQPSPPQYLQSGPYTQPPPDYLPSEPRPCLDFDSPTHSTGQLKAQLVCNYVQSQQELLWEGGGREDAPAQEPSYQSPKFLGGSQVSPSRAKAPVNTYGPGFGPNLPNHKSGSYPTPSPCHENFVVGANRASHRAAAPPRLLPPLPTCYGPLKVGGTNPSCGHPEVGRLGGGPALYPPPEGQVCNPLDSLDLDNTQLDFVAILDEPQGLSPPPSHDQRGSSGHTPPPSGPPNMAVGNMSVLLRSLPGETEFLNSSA

Hh signaling = experiment: Gli-luciferase assay (Ptch1-promoter driven luciferase reporter); type: cell-based, mouse; conditions: NIH/3T3 cells, RNAi knock down of suFU; FIG. 3
Experimental: Cells were plated at a density of 5×10^4 per well in 24-well plates 18 hr prior to transfection. DNA transfection was performed using Lipofectamine™ 2000 transfection reagent (Invitrogen, #11668); the DNA introduced in each well included 100 ng CMV driven Renilla luciferase construct, 300 ng Ptch1 promoter-driven firefly luciferase construct, and 400 ng of each shRNA construct or a PBS plasmid as a control. Cells were grown for two days; then the medium was changed to DMEM containing 0.5% BCS and proteins/compounds indicated in the text. Cells were cultured for an additional 48 hr, tryspinized, lysed and assayed using a Promega Dual Luciferase Reporter Essay System Kit (E1910). Renilla luciferase signal was used to normalize the firefly luciferase signal. The RNAi efficiency was measured as previous described (Varjosalo et al., 2006). In all luciferase assays, every condition was repeated in quadruplicate wells and experiments were repeated at least three times.
Mouse recombinant ShhN purified protein was purchased from R&D Systems (#464-SH-025). SAG, SANT-2, and GANT61 were purchased from Axxora (#ALX-270-426, #ALX-270-436, #ALX-270-482; Axxora, LLC, San Diego, Calif.). SANT-1 was obtained from Tocris Bioscience (#1974). DMSO was from Sigma Aldrich (D2650). Purmorphamine was from Calbiochem (#540220). […]

[3] = test system: UV-irradiated Ptch1^+/− mice; conditions: prolonged systemic treatment; cited from earlier work

T1 sequence (Q99835 28-787): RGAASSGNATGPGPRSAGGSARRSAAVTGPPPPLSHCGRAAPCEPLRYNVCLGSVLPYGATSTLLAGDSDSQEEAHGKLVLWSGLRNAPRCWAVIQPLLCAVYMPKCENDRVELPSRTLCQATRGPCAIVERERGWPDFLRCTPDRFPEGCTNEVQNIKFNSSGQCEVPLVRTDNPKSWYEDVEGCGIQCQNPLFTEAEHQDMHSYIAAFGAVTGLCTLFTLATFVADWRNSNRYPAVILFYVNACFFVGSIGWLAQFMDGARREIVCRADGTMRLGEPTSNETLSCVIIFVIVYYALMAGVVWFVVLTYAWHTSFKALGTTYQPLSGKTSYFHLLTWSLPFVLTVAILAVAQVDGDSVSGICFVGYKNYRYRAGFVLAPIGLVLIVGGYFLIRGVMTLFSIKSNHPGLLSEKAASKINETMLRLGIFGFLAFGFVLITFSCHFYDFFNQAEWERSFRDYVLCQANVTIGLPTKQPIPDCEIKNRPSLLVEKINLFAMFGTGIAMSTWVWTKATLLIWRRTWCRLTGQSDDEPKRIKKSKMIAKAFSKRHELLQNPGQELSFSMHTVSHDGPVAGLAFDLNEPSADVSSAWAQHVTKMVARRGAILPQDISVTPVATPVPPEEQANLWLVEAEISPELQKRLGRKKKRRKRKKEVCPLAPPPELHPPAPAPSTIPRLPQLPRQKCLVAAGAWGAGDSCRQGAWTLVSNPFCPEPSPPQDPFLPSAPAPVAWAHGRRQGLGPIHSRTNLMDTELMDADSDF
Sequence of Smo (Mus musculus, UniProt P56726) (P56726 33-793): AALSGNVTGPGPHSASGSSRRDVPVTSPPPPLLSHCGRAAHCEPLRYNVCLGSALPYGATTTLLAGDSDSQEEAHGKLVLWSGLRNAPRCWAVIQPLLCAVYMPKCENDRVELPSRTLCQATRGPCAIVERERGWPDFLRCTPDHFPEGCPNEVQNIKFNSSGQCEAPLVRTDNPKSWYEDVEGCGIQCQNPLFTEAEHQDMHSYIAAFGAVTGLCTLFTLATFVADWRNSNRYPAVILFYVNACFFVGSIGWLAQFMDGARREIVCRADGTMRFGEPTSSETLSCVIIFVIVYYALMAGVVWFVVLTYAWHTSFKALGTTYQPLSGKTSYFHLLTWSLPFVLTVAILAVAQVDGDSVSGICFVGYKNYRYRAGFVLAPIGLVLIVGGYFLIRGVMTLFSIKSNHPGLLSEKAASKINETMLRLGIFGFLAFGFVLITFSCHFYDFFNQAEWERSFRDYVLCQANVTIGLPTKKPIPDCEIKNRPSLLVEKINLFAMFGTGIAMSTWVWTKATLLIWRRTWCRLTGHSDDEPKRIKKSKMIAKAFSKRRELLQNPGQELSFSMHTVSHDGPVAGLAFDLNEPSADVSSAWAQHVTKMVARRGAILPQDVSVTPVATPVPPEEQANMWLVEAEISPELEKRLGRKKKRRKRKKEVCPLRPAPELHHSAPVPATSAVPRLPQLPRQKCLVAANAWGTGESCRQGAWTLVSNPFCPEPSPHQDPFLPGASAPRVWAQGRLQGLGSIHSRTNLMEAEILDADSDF

SMILES | Smo translocation to the primary cilium, agent applied alone (Smo [1]) | ShhN-dependent translocation of Smo to the primary cilium, antagonist plus ShhN (Smo [1]) | other results
c1ccc2c(Oc3nc(Nc4ccc(N5CCOCC5)cc4)c4ncn(C5CCCCC5)c4n3)cccc2c1 [purmorphamine] | Smo translocated to the primary cilium | – | –
CNC1CCC(N(Cc2cccc(-c3ccncc3)c2)C(=O)c2sc3ccccc3c2Cl)CC1 (centres unmarked) [SAG] | Smo translocated to the primary cilium | – | –
CC(C)CCC[C@](C)(O)[C@H]1CC[C@H]2[C@@H]3CC=C4C[C@@H](O)CC[C@]4(C)[C@H]3CC[C@@]21C [20-OHC, 20α-hydroxycholesterol] | Smo translocated to the primary cilium | – | –
CCOc1cc(C(=O)Nc2ccc(Cl)c(-c3nc4ccccc4[nH]3)c2)cc(OCC)c1OCC [SANT-2] | do not induce obvious localization change of Smo | abrogate the ShhN-dependent translocation of Smo to the primary cilium | Inhibition of SmoA1 activity, dose relative to wild-type Smo (SmoA1): at a comparable dose to that required to inhibit wild-type Smo; Competition for cyclopamine binding of Smo (Smo [2]): compete for cyclopamine binding of Smo
Cc1nn(-c2ccccc2)c(C)c1/C=N/N1CCN(Cc2ccccc2)CC1 [SANT-1] | do not induce obvious localization change of Smo | abrogate the ShhN-dependent translocation of Smo to the primary cilium | Inhibition of SmoA1 activity, dose relative to wild-type Smo (SmoA1): at a comparable dose to that required to inhibit wild-type Smo; Competition for cyclopamine binding of Smo (Smo [2]): compete for cyclopamine binding of Smo
CN(C)c1ccccc1CN1CCCN(Cc2ccccc2N(C)C)C1c1ccncc1 [GANT61] | do not induce obvious localization change of Smo | abrogate the ShhN-dependent translocation of Smo to the primary cilium | Gli1 binding to DNA (Gli1): inhibits Gli1 binding to DNA; Gli activity when the endogenous Gli antagonist suFU was knocked down (Hh signaling): inhibited Gli activity
CC1=C2C[C@H]3[C@@H](CC=C4C[C@@H](O)CC[C@@]43C)[C@@H]2CC[C@]12O[C@@H]1C[C@H](C)CN[C@H]1[C@H]2C [cyclopamine] | drove Smo to the primary cilium | – | Tumor formation [3]: significantly diminish tumor formation
